Test results as given in patent US7528148B2, “Pyrazolo[3,4-B]pyridine compounds, and their use as phosphodiesterase inhibitors” (Glaxo Group Limited, priority 2002, dated 2009).

Tests used:
[1] = test system: microfilaricidal activity; settings: cited from earlier work
[2] = test system: LPS-induced pulmonary neutrophilia and emesis in the conscious ferret; assay: In vivo Assay 4: therapeutic index of orally-administered PDE4 inhibitors in the conscious ferret
Description: In vivo Assay 4. Evaluation of Therapeutic Index of Orally-administered PDE 4 Inhibitors in the Conscious Ferret
PDE4 inhibitors are prepared for oral p.o.) administration by dissolving in a fixed volume (1 ml) of acetone and then adding cremophor to 20% of the final volume. Acetone is evaporated by directing a flow of nitrogen gas onto the solution. Once the acetone is removed, the solution is made up to final volume with distilled water. LPS is dissolved in phosphate buffered saline.
Male ferrets (Mustela Pulorius Furo, weighing 1-2 kg) are transported and allowed to acclimatise for not less than 7 days. The diet comprises SDS diet C pelleted food given ad lib with Whiskers™ cat food given 3 times per week. The animals are supplied with pasteurised animal grade drinking water changed daily.
PDE4 inhibitors are administered orally (p.o.), using a dose volume of 1 ml/kg.
Ferrets are fasted overnight but allowed free access to water. The animals are orally dosed with vehicle or PDE 4 inhibitor using a 15 cm dosing needle that is passed down the back of the throat into the oesophagus. After dosing, the animals are returned to holding cages fitted with perspex doors to allow observation, and given free access to water. The animals are constantly observed and any emetic episodes (retching and vomiting) or behavioural changes are recorded. […]
Thirty minutes after oral dosing with compound or vehicle control, the ferrets are placed into sealed perspex containers and exposed to an aerosol of LPS (30 μg/ml) for 10 minutes. […] All emetic episodes and behavioural changes are recorded.
Six hours after LPS exposure the animals are killed by overdose of sodium pentobarbitone administered intraperitoneally. […] From this, the total number of neutrophils in the BAL sample is determined. […]
b) Emetic episodes—the number of vomits and retches are counted to determine the dose of PDE4 inhibitor that gives a 20% incidence of emesis (D20).
c) A therapeutic index (TI), using this assay, is then calculated for each PDE4 inhibitor using the following equation: […]

SMILES | microfilaricidal activity [1] | Ferret TI ([2]; D20/D50, p.o.) | D20 for emesis ([2]; ferret, p.o., dose giving 20% incidence of emesis) [mg/kg] | D50 for ferret neutrophilia ([2]; ferret, p.o., dose giving 50% inhibition of LPS-induced pulmonary neutrophilia) [mg/kg]
CC1Cc2ccccc2C(c2cnc3c(c(-c4ccccc4)nn3-c3ccccc3)c2O)=N1 (centres unmarked) | no significant microfilaricidal activity |  |  | 
O=C(Nc1c(Cl)cncc1Cl)c1ccc(OC(F)F)c(OCC2CC2)c1 [roflumilast] |  | 1.1 | 0.46 | 0.42
Oc1c(C2=NCCc3ccccc32)cnc2c1c(-c1ccccc1)nn2-c1ccccc1 [4-hydroxy-1,3-diphenyl-5-(3′,4′-dihydroisoquinol-1′-yl)-pyrazolo[3,4-b]pyridine, reference compound] | no significant microfilaricidal activity |  |  | 
